Assays:
[1] = AUC (0 to infinity) in Sprague-Dawley rat at 5 mg/kg, po measured after 0.083 to 24 hrs by LC-MS analysis; format: ADME, organism-based; parameters: time upper 24 hrs, dose 5 mg/kg, time lower 0.083 hrs, route po; conditions: in vivo
[2] = Acute toxicity in 12 hr fasted female CD-1(ICR) mouse assessed as pathological damage in heart at 2 g/kg, IG administered as single dose measured after 14 days by H and E staining based analysis; format: tissue-based; conditions: in vivo, po, 2000 mg/kg, 336 h, time 14 day
[3] = Acute toxicity in 12 hr fasted male CD-1(ICR) mouse assessed as pathological damage in kidney at 2 g/kg, IG administered as single dose measured after 14 days by H and E staining based analysis; format: tissue-based; conditions: in vivo, po, 2000 mg/kg, 336 h, time 14 day
[4] = Acute toxicity in 12 hr fasted female CD-1(ICR) mouse assessed as pathological damage in spleen at 2 g/kg, IG administered as single dose measured after 14 days by H and E staining based analysis; format: tissue-based; conditions: in vivo, po, 2000 mg/kg, 336 h, time 14 day
[5] = Acute toxicity in 12 hr fasted male CD-1(ICR) mouse assessed as changes in body weight at 2 g/kg, IG administered as single dose measured after 14 days; conditions: in vivo, po, 2000 mg/kg, 336 h, time 14 day
[6] = Acute toxicity in 12 hr fasted female CD-1(ICR) mouse assessed as pathological damage in kidney at 2 g/kg, IG administered as single dose measured after 14 days by H and E staining based analysis; format: tissue-based; conditions: in vivo, po, 2000 mg/kg, 336 h, time 14 day
[7] = MRT (0 to infinity) in Sprague-Dawley rat at 5 mg/kg, po measured after 0.083 to 24 hrs by LC-MS analysis; format: ADME, organism-based; conditions: in vivo, time 0.083-24 hrs
[8] = system: Human immunodeficiency virus 1; experiment: microbe, parasite or virus in culture; conditions: Human immunodeficiency virus 1, IIIB, MT4
Description: Antiviral activity against HIV-1 IIIB harboring reverse transcriptase Y188L mutant infected in human MT4 cells by MTT assay

[9] = system: Human immunodeficiency virus 1; experiment: microbe, parasite or virus in culture; conditions: Human immunodeficiency virus 1, IIIB, MT4; remark: listed apart in the source
Description: Antiviral activity against wild type HIV-1 IIIB infected in human MT4 cells assessed as protection against virus-induced cytopathic effect by MTT assay

Cytochrome P450 2C9 = Cytochrome P450 2C9 (Homo sapiens, UniProt P11712); experiment: Inhibition of CYP2C9 in human liver microsomes using diclofenac as substrate incubated for 15 to 45 mins in presence of NADPH
Chain of Cytochrome P450 2C9 (P11712 whole entry): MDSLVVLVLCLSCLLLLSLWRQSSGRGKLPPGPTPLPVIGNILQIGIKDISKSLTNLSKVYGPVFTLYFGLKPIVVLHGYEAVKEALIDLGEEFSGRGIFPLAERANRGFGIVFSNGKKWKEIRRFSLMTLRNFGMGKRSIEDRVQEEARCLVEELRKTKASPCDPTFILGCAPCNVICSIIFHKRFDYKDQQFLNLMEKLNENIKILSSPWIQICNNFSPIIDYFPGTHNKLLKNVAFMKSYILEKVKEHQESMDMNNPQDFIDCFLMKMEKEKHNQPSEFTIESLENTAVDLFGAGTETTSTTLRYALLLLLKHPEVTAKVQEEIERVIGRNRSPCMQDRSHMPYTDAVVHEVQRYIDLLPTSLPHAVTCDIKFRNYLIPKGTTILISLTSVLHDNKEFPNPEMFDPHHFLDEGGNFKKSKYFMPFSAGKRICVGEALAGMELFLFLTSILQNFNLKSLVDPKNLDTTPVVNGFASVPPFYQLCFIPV

[10] = Acute toxicity in 12 hr fasted female CD-1(ICR) mouse assessed as changes in body weight at 2 g/kg, IG administered as single dose measured after 14 days; conditions: in vivo, po, 2000 mg/kg, 336 h, time 14 day
[11] = Acute toxicity in 12 hr fasted female CD-1(ICR) mouse assessed as animal death at 2 g/kg, IG administered as single dose measured after 14 days; conditions: in vivo, po, 2000 mg/kg, 336 h, time 14 day
[12] = Acute toxicity in 12 hr fasted male CD-1(ICR) mouse assessed as pathological damage in lung at 2 g/kg, IG administered as single dose measured after 14 days by H and E staining based analysis; format: tissue-based; conditions: in vivo, po, 2000 mg/kg, 336 h, time 14 day
[13] = AUC (0 to infinity) in Sprague-Dawley rat at 1 mg/kg, iv measured after 0.083 to 24 hrs by LC-MS analysis; format: ADME, organism-based; parameters: dose 1 mg/kg, time 0.083-24 hrs, route iv; conditions: in vivo
[14] = Cmax in Sprague-Dawley rat at 1 mg/kg, iv measured after 0.083 to 24 hrs by LC-MS analysis; format: ADME, organism-based; parameters: time upper 24 hrs, dose 1 mg/kg, time lower 0.083 hrs, route iv; conditions: in vivo
[15] = biological target: Human immunodeficiency virus type 1 reverse transcriptase (Human immunodeficiency virus 1, UniProt Q72547)
Description: Inhibition of HIV-1 reverse transcriptase using oligo(dT)16 as primer measured after 40 mins by picogreen-dye based spectrofluorometric analysis

[16] = system: Human immunodeficiency virus 1; experiment: Antiviral activity against HIV-1 IIIB harboring reverse transcriptase Y181C mutant infected in human MT4 cells by MTT assay; format: functional, organism-based; conditions: Human immunodeficiency virus 1, IIIB
[17] = Acute toxicity in 12 hr fasted male CD-1(ICR) mouse assessed as pathological damage in liver at 2 g/kg, IG administered as single dose measured after 14 days by H and E staining based analysis; format: tissue-based; conditions: in vivo, po, 2000 mg/kg, 336 h, time 14 day
Cytochrome P450 3A4 = Cytochrome P450 3A4 (Homo sapiens, UniProt P08684); experiment: Inhibition of CYP3A4 in human liver microsomes using midazolam as substrate incubated for 15 to 45 mins in presence of NADPH
Chain of Cytochrome P450 3A4 (P08684 whole entry): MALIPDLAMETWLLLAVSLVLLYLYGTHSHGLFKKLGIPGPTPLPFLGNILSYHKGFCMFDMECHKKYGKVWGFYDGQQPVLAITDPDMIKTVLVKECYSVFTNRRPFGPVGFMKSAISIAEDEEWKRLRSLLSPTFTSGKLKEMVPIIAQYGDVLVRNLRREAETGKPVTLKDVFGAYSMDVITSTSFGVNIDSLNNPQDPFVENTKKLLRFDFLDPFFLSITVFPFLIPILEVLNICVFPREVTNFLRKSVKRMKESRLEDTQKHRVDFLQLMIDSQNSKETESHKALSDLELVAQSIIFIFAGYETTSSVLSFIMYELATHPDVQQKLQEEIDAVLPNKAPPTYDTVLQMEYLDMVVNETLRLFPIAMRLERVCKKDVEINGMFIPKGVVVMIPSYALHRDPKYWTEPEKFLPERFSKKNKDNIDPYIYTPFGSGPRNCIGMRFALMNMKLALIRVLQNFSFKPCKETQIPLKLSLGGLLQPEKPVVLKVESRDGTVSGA

in vitro = conditions: human, MT4 cells
Description: Selectivity index, ratio of CC50 for cytotoxicity against human MT4 cells to EC50 for antiviral activity against wild type HIV-1 IIIB infected in human MT4 cells

[18] = system: Human immunodeficiency virus 1; experiment: Antiviral activity against HIV-1 IIIB harboring reverse transcriptase E138K mutant infected in human MT4 cells by MTT assay; format: functional, organism-based; conditions: Human immunodeficiency virus 1, IIIB
[19] = Tmax in Sprague-Dawley rat at 5 mg/kg, po measured after 0.083 to 24 hrs by LC-MS analysis; format: ADME, organism-based; conditions: in vivo, time 0.083-24 hrs
[20] = Clearance in Sprague-Dawley rat at 1 mg/kg, iv measured after 0.083 to 24 hrs by LC-MS analysis; format: ADME, organism-based; conditions: in vivo, time 0.083-24 hrs
[21] = Acute toxicity in 12 hr fasted male CD-1(ICR) mouse assessed as behavioral abnormalities at 2 g/kg, IG administered as single dose measured after 14 days; conditions: in vivo, po, 2000 mg/kg, 336 h, time 14 day
[22] = Half life in Sprague-Dawley rat at 5 mg/kg, po measured after 0.083 to 24 hrs by LC-MS analysis; format: ADME, organism-based; conditions: in vivo, time 0.083-24 hrs
[23] = MRT (0 to infinity) in Sprague-Dawley rat at 1 mg/kg, iv measured after 0.083 to 24 hrs by LC-MS analysis; format: ADME, organism-based; conditions: in vivo, time 0.083-24 hrs
[24] = Acute toxicity in 12 hr fasted male CD-1(ICR) mouse assessed as pathological damage in spleen at 2 g/kg, IG administered as single dose measured after 14 days by H and E staining based analysis; format: tissue-based; conditions: in vivo, po, 2000 mg/kg, 336 h, time 14 day
[25] = Acute toxicity in 12 hr fasted female CD-1(ICR) mouse assessed as behavioral abnormalities at 2 g/kg, IG administered as single dose measured after 14 days; conditions: in vivo, po, 2000 mg/kg, 336 h, time 14 day
[26] = system: Human immunodeficiency virus 1; experiment: Antiviral activity against HIV-1 IIIB harboring reverse transcriptase K103N mutant infected in human MT4 cells by MTT assay; format: functional, organism-based; conditions: Human immunodeficiency virus 1, IIIB
Cytochrome P450 1A2 = biological target: T1, Cytochrome P450 1A2 (Homo sapiens, UniProt P05177); experiment: Inhibition of CYP1A2 in human liver microsomes using phenacetin as substrate incubated for 15 to 45 mins in presence of NADPH
T1 sequence (P05177 whole entry): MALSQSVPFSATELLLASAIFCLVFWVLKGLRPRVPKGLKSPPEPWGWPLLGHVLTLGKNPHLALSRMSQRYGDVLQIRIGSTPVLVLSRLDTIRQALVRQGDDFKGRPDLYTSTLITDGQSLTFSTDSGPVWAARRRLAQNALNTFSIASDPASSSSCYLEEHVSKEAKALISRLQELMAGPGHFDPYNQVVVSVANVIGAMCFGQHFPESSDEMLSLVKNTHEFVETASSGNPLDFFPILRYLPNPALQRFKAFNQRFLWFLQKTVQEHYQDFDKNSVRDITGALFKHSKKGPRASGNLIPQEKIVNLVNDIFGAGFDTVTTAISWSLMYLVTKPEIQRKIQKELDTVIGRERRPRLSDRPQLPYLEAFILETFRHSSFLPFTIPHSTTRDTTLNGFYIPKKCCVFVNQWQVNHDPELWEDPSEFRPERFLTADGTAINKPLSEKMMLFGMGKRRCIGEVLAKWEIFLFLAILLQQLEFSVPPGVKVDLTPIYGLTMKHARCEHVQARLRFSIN

[27] = Acute toxicity in 12 hr fasted male CD-1(ICR) mouse assessed as animal death at 2 g/kg, IG administered as single dose measured after 14 days; conditions: in vivo, po, 2000 mg/kg, 336 h, time 14 day
[28] = Acute toxicity in 12 hr fasted male CD-1(ICR) mouse assessed as pathological damage in heart at 2 g/kg, IG administered as single dose measured after 14 days by H and E staining based analysis; format: tissue-based; conditions: in vivo, po, 2000 mg/kg, 336 h, time 14 day

**Q.** With `COc1cc(-c2ccc(C#N)cc2)ccc1Oc1cc(N)nc(Nc2ccc(C#N)cc2)n1` as the compound, how does the AUC(0-inf) [1] read?
**A.** 124 ng·h/mL

**Q.** What about the Activity [2] of the same compound?
**A.** Non-Toxic

**Q.** What about the Activity [3] of the same compound?
**A.** Non-Toxic

**Q.** What about the Activity [4] of the same compound?
**A.** Non-Toxic

**Q.** What about the Activity [5] of the same compound?
**A.** Non-Toxic

**Q.** What about the Activity [6] of the same compound?
**A.** Non-Toxic

**Q.** What about the MRT inf [7] of the same compound?
**A.** 2.89 h

**Q.** What about the EC50 [8] of the same compound?
**A.** 570 nM

**Q.** What about the EC50 [9] of the same compound?
**A.** 1.9 nM

**Q.** What about the IC50 (Cytochrome P450 2C9) of the same compound?
**A.** 5160 nM

**Q.** And the Activity [10]?
**A.** Non-Toxic

**Q.** What about the Activity [11] of the same compound?
**A.** Non-Toxic

**Q.** What about the Activity [12] of the same compound?
**A.** Non-Toxic

**Q.** What about the AUC(0-inf) [13] of the same compound?
**A.** 329 ng·h/mL

**Q.** What about the Cmax [14] of the same compound?
**A.** 329 ng/mL

**Q.** What about the IC50 [15] of the same compound?
**A.** 36 nM

**Q.** And the EC50 [16]?
**A.** 29 nM

**Q.** What about the Activity [17] of the same compound?
**A.** Non-Toxic

**Q.** And the IC50 (Cytochrome P450 3A4)?
**A.** > 50000 nM

**Q.** What about the selectivity ratio (in vitro) of the same compound?
**A.** 63400

**Q.** What about the EC50 [18] of the same compound?
**A.** 9 nM

**Q.** What about the Tmax [19] of the same compound?
**A.** 0.83 h

**Q.** What about the clearance [20] of the same compound?
**A.** 51.6 mL/min/kg

**Q.** What about the Activity [21] of the same compound?
**A.** Non-Toxic

**Q.** What about the half-life [22] of the same compound?
**A.** 2.33 h

**Q.** What about the MRT inf [23] of the same compound?
**A.** 1.18 h

**Q.** And the Activity [24]?
**A.** Non-Toxic

**Q.** And the Activity [25]?
**A.** Non-Toxic

**Q.** What about the EC50 [26] of the same compound?
**A.** 4 nM

**Q.** And the IC50 (Cytochrome P450 1A2)?
**A.** > 50000 nM

**Q.** And the Activity [27]?
**A.** Non-Toxic

**Q.** And the Activity [28]?
**A.** Non-Toxic

Reference: ChEMBL document CHEMBL5131537 (J Med Chem, 2022)
